This passage reports IC50 results from patent US20180325889A1, “IMMUNOREGULATORY AGENTS” (FLEXUS BIOSCIENCES, INC., priority 2014, published 2018).

As usually defined, the IC50 is the point on the concentration scale where inhibition reaches its midpoint.

T1 sequence (P14902 whole entry): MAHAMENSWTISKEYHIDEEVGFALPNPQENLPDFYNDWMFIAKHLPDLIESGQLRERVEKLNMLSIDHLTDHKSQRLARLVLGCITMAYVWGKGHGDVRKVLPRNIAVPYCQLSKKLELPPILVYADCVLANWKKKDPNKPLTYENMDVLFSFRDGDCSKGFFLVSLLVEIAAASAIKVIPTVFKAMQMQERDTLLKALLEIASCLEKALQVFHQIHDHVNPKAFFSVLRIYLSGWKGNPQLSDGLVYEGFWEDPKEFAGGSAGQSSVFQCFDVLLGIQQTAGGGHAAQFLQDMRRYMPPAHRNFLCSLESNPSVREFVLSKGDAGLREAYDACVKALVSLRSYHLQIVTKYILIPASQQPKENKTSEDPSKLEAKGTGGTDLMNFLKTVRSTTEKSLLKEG

The experiment concerns the target T1, human IDO1/HEK293 cells (Homo sapiens, UniProt P14902).
T1 construct: expressed in transfected cells
Nature of the experiment: HEK Human IDO-1 cell-based IDO inhibition assay (kynurenine production). The settings on record: HEK293 cells stably expressing human IDO1, 20 hours incubation, absorbance at 490 nm; read-out: HEK Human IDO-1 Bio Activity (IDO IC50). On the procedure: They were cultured in medium (DMEM with 10% FBS) containing 1 mg/ml G418 for two weeks.
The human IDO1/HEK293 cells were seeded at 10,000 cells per 50 μL per well with RPMI/phenol red free media contains 10% FBS in a 384-well black wall clear bottom tissue culture plate (Matrix Technologies LLC) 100 nL of certain concentration of compound was then added to each well using ECHO liquid handling systems. The cells were incubated for 20 hours in 37° C. incubator with 5% CO2.
The compound treatments were stopped by adding trichloroacetic acid (Sigma-Aldrich) to a final concentration at 0.2%. The cell plate was further incubated at 50° C. for 30 minute. The equal volume supernatant (20 μL) and 0.2% (w/v) Ehrlich reagent (4-dimethylaminobenzaldehyde, Sigma-Aldrich) in glacial acetic acid were mixed in a new clear bottom 384-well plate. This plate was then incubated at room temperature for 30 minute. The absorbance at 490 nm was measured on Envision plate reader.
In the case of `CCC(NC(=O)c1ccc(Cl)cc1)C1CCC(c2ccnc3ccc(F)cc23)CC1` (single isomer, unassigned) [Example 164d, 4-Chloro-N-(1-(4-(6-fluoroquinolin-4-yl)cyclohexyl)propyl)benzamide], the IC50 was under 50 nM.

`C[C@@H](NS(=O)(=O)c1ccccc1Cl)[C@H]1CC[C@@H](c2ccnc3ccc(F)cc32)CC1` [Example 42, 2-chloro-N-((R)-1-((1s,4S)-4-(6-fluoroquinolin-4-yl)cyclohexyl)ethyl)benzenesulfonamide]: the half-inhibitory concentration (IC50) is under 2000 nM.

On to `COc1cccc(C(=O)N[C@H](C)[C@H]2CC[C@@H](c3ccnc4ccc(F)cc43)CC2)c1` [Example 53, N-((R)-1-((1s,4S)-4-(6-fluoroquinolin-4-yl)cyclohexyl)ethyl)-3-methoxybenzamide], for which the IC50 was under 50 nM.

Turning to `Cc1c(C2CCC(C(C)NC(=O)c3ccc(-c4ccccc4)cc3)CC2)ccnc1F` (single isomer, unassigned) [Example 223, N-(1-(4-(2-fluoro-3-methylpyridin-4-yl)cyclohexyl)ethyl)-[1,1′-biphenyl]-4-carboxamide], the half-inhibitory concentration (IC50) was under 50 nM.

For `O=C(Nc1ccc(-c2ccccc2)cc1)N1CCN(c2ccnc3ccc(F)cc23)CC1` [Example 84, N-([1,1′-Biphenyl]-4-yl)-4-(6-fluoroquinolin-4-yl)piperazine-1-carboxamide], the 50% inhibitory concentration (IC50) was under 2000 nM.

With `C[C@@H](NC(=O)c1ccc(-c2ncc(C#N)s2)cc1)[C@H]1CC[C@@H](c2ccnc3ccc(F)cc32)CC1` [Example 253, 4-(5-cyanothiazol-2-yl)-N-((R)-1-((1s,4S)-4-(6-fluoroquinolin-4-yl)cyclohexyl)ethyl)benzamide], the IC50 is under 50 nM.

For the molecule `CC(NC(=O)c1ccc(Cl)cc1)C1CCC(c2ccnc(C(F)(F)F)c2)CC1` (single isomer, unassigned) [Example 213, 4-chloro-N-(1-(4-(2-(trifluoromethyl)pyridin-4-yl)cyclohexyl)ethyl)benzamide], the half-inhibitory concentration (IC50) is under 50 nM.

For the molecule `O=C(Nc1ccc(Cl)cc1)[C@H]1CC[C@H](c2ccnc3ccc(F)cc32)CC1` [Example 75, (trans)-N-(4-Chlorophenyl)-4-(6-fluoroquinolin-4-yl)cyclohexanecarboxamide], the half-maximal inhibitory concentration (IC50) was under 250 nM.

For the molecule `CCC(NC(=O)c1ccc(Cl)cc1)[C@H]1CC[C@@H](c2ccnc3ccc(C(F)(F)F)cc32)CC1` (stereo partly shown) [Example 254, 4-chloro-N-(1-((1s, 4s)-4-(6-(trifluoromethyl)quinolin-4-yl)cyclohexyl)propyl)benzamide], the IC50 was under 50 nM.

As to `O=C(N[C@H]1CC[C@H](c2ccnc3ccc(F)cc32)CC1)c1ccc(Cl)cc1` [Example 146, 4-chloro-N-(trans-4-(6-fluoroquinolin-4-yl)cyclohexyl)benzamide], the IC50 was under 2000 nM.

Take `C[C@@H](NC(=O)c1ccc(-c2ccc(C(C)(C)O)cc2)cc1)[C@H]1CC[C@@H](c2ccnc3ccc(F)cc32)CC1` [Example 242, N-((R)-1-((1s,4S)-4-(6-fluoroquinolin-4-yl)cyclohexyl)ethyl)-4′-(2-hydroxypropan-2-yl)biphenyl-4-carboxamide]: the IC50 is under 250 nM.

Consider `C[C@@H](NC(=O)c1ccc(-c2cscn2)cc1)[C@H]1CC[C@@H](c2ccnc3ccc(F)cc32)CC1` [Example 243, N-((R)-1-((1s,4S)-4-(6-fluoroquinolin-4-yl)cyclohcxyl)cthyl)-4-(thiazol-4-yl)benzamide], for which the IC50 is under 50 nM.

For the molecule `C[C@@H](NC(=O)c1ccc(-c2cnco2)cc1)[C@H]1CC[C@@H](c2ccnc3ccc(F)cc32)CC1` [Example 250, N-((R)-1-((1s,4S)-4-(6-fluoroquinolin-4-yl)cyclohexyl)ethyl)-4-(oxazol-5-yl)benzamide], the half-maximal inhibitory concentration (IC50) was under 50 nM.

With `CCC(NC(=O)c1ccc(Cl)cc1)[C@H]1CC[C@H](Oc2ccnc3ccccc23)CC1` (mixture of isomers) [Example 71, 4-Chloro-N-(1-((trans)-4-(quinolin-4-yloxy)cyclohexyl)propyl)benzamide], the concentration for half-maximal inhibition (IC50) was under 50 nM.

`C[C@@H](NC(=O)c1ccccn1)[C@H]1CC[C@@H](c2ccnc3ccc(F)cc32)CC1` [Example 67, N-((R)-1-((1s,4S)-4-(6-fluoroquinolin-4-yl)cyclohexyl)ethyl)picolinamide]: the half-inhibitory concentration (IC50) is under 50 nM.

On to `O=C(NCC1CCN(c2ccnc3ccc(F)cc23)CC1)c1ccc(Cl)cc1` [Example 88], for which the 50% inhibitory concentration (IC50) was under 2000 nM.

Turning to `CCC(NC(=O)c1ccc(Cl)cc1)C1CCC(c2cccc(C(F)F)n2)CC1` (single isomer, unassigned) [Example 231c, 4-chloro-N-(1-(4-(6-(difluoromethyl)pyridin-2-yl)cyclohexyl)propyl)benzamide], the IC50 is under 2000 nM.

With `CCC(NC(=O)c1ccc(-c2ccccc2)cc1)[C@H]1CC[C@@H](c2ccnc3ccc(C(F)(F)F)cc32)CC1` (mixture of isomers) [Example 230, N-(1-((1s,4s)-4-(6-(trifluoromethyl)quinolin-4-yl)cyclohexyl)propyl)biphenyl-4-carboxamide], the 50% inhibitory concentration (IC50) is under 50 nM.

Regarding `CC(NC(=O)c1ccc(Cl)cc1)C1CCC(c2ccnc(C(F)(F)F)c2)CC1` (single isomer, unassigned) [Example 212, 4-chloro-N-(1-(4-(2-(trifluoromcthyl)pyridin-4-yl)cyclohexyl)ethyl)benzamide], the IC50 is under 2000 nM.

For `C[C@@H](NC(=O)c1cccc(Cl)c1)[C@H]1CC[C@@H](c2ccnc3ccc(F)cc32)CC1` [Example 57, 3-chloro-N-((R)-1-((1s,4S)-4-(6-fluoroquinolin-4-yl)cyclohexyl)ethyl)benzamide], the 50% inhibitory concentration (IC50) was under 50 nM.

As for `CC(NC(=O)c1ccc(Cl)cc1)C1CCC(c2ccc(C(F)(F)F)nc2)CC1` (single isomer, unassigned) [Example 219, 4-chloro-N-(1-(4-(6-(trifluoromethyl)pyridin-3-yl)cyclohexyl)ethyl)benzamide], the 50% inhibitory concentration (IC50) was under 250 nM.

`Cc1ccc(C(=O)NC(C)C2CCC(Oc3ccnc(C)c3Cl)CC2)cc1` (racemic) [Example 210]: the half-maximal inhibitory concentration (IC50) is under 250 nM.

On to `Cc1nnc(-c2ccc(C(=O)N[C@H](C)[C@H]3CC[C@@H](c4ccnc5ccc(F)cc54)CC3)cc2)o1` [Example 232, N—((R)-1-((1s,4S)-4-(6-fluoroquinolin-4-yl)cyclohexyl)ethyl)-4-(5-methyl-1,3,4-oxadiazol-2-yl)benzamide], for which the IC50 was under 250 nM.

`CCC(NC(=O)c1ccc(Cl)cc1)C1CCC(c2cccc(C(F)F)n2)CC1` (single isomer, unassigned) [Example 231e, 4-chloro-N-(1-(4-(6-(difluoromethyl)pyridin-2-yl)cyclohexyl)propyl)benzamide]: the IC50 was under 50 nM.

Regarding `Cc1cc(C2CCC(C(C)NC(=O)c3ccc(Cl)cc3)CC2)ccn1` (single isomer, unassigned) [Example 157b, 4-Chloro-N-(1-(4-(2-methylpyridin-4-yl)cyclohexyl)ethyl) Benzamide], the IC50 was under 50 nM.

As for `CCC(NC(=O)c1ccc(Cl)cc1)C1CCC(c2ccnc3ccc(F)cc23)CC1` (single isomer, unassigned) [Example 164a, 4-Chloro-N-(1-(4-(6-fluoroquinolin-4-yl)cyclohexyl)propyl)benzamide], the IC50 was under 250 nM.

Take `COc1ccc(-c2ccc(C(=O)N[C@H](C)[C@H]3CC[C@@H](c4ccnc5ccc(F)cc54)CC3)nc2)cc1F` [Example 178, 5-(3-fluoro-4-methoxyphenyl)-N-((R)-1-(cis-4-(6-fluoroquinolin-4-yl)cyclohexyl)ethyl)picolinamide]: the IC50 was under 250 nM.

In the case of `C[C@@H](NC(=O)c1ccccc1Cl)[C@H]1CC[C@@H](c2ccnc3ccc(F)cc32)CC1` [Example 56, 2-chloro-N-((R)-1-((1s,4S)-4-(6-fluoroquinolin-4-yl)cyclohexyl)ethyl)benzamide], the half-maximal inhibitory concentration (IC50) was under 50 nM.

In the case of `CC(NC(=O)c1ccc(Cl)cc1)C1CCC(c2ccnc(C(F)(F)F)c2)CC1` (single isomer, unassigned) [Example 214, 4-chloro-N-(1-(4-(2-(trifluorornethyl)pyridin-4-yl)cyclohexyl)ethyl)benzamide], the half-maximal inhibitory concentration (IC50) was under 250 nM.

As to `C[C@@H](NC(=O)c1cc(Cl)cc(Cl)c1)[C@H]1CC[C@@H](c2ccnc3ccc(F)cc32)CC1` [Example 66, 3,5-dichloro-N-((R)-1-((1s,4S)-4-(6-fluoroquinolin-4-yl)cyclohexyl)ethyl)benzamide], the IC50 was under 50 nM.

`C[C@@H](NC(=O)c1ccc(C2CC2)cc1)[C@H]1CC[C@@H](c2ccnc3ccc(F)cc32)CC1` [Example 247, 4-cyclopropyl-N-((R)-1-((1s,4S)-4-(6-fluoroquinolin-4-yl)cyclohexyl)ethyl)benzamide]: the IC50 was under 50 nM.

Take `CC(NC(=O)c1ccc(Cl)cc1)C1CCC(c2ccc(C(F)(F)F)nc2)CC1` (single isomer, unassigned) [Example 217, 4-chloro-N-(1-(4-(6-(trifluoromethyl)pyridin-3-yl)cyclohexyl)ethyl)benzamide]: the IC50 was under 2000 nM.

With `O=C(NCC1CCN(c2ccnc3ccc(F)cc23)CC1)c1ccc(Cl)c(Cl)c1` [Example 87, 3,4-Dichloro-N-((1-(6-fluoroquinolin-4-yl)piperidin-4-yl)methyl)benzamide], the half-maximal inhibitory concentration (IC50) was under 250 nM.

In the case of `CCC(NC(=O)c1ccc(Cl)cc1)[C@H]1CC[C@H](Oc2ccnc3c(C(F)(F)F)cccc23)CC1` (stereo partly drawn) [Example 72, 4-Chloro-N-(1-((trans)-4-((8-(trifluoromethyl)quinolin-4-yl)oxy)cyclohexyl)propyl)benzamide], the 50% inhibitory concentration (IC50) was under 2000 nM.
